In US10206907B2, “Compounds useful for the treatment of degenerative and inflammatory diseases” (GALAPAGOS NV, priority 2008, dated 2019):

Assays:
[1] = Caco2 permeability (bi-directional); type: in vitro ADME, human; conditions: human, pH 7.4; for Papp A→B at 1 h, 10 µM: Caco-2, apical to basolateral, read-out: Papp (A2B); for efflux ratio at 1 h, 10 µM: Caco-2, ratio of PappB>A/PappA>B
Experimental: Bi-directional Caco-2 assays were performed as described below.
2×10^5 cells/well were seeded in plating medium consisting of DMEM+GlutaMAXI+1% NEAA+10% FBS (FetalClone II)+1% Pen/Strep. The medium was changed every 2-3 days.
50 μM Lucifer Yellow (Sigma) was added to the donor buffer in all wells to assess integrity of the cell layers by monitoring Lucifer Yellow permeation. As Lucifer Yellow (LY) cannot freely permeate lipophilic barriers, a high degree of LY transport indicates poor integrity of the cell layer.
After a 1 hour incubation at 37° C. while shaking at an orbital shaker at 150 rpm, 70 μL aliquots were taken from both apical (A) and basal (B) chambers and added to 100 μL1 50:50 acetonitrile:water solution containing analytical internal standard (0.5 μM carbamazepine) in a 96 well plate.
Concentrations of compound in the samples were measured by high performance liquid-chromatography/mass spectroscopy (LC-MS/MS).
The Efflux ratios, as an indication of active efflux from the apical cell surface, were calculated using the ratio of PappB>A/PappA>B.
The following assay acceptance criteria were used:
Lucifer yellow permeability: ≤100 nm/s

[2] = target: Recombinant human JAK1 catalytic domain (Homo sapiens (Human), UniProt P23458); assay: JAK1 inhibition assay; type: biochemical; conditions: semi-quantitative score
Procedure, shortened: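 Radiometric assay read by scintillation counting after phosphoric-acid washes. Percent inhibition calculated from cpm relative to vehicle and 10 μM staurosporine control. IC50 derived from compound dose-dilution series.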

[3] = Microsomal stability, human liver microsomes; type: in vitro ADME; conditions: percentage of compound remaining after 60 minutes, 3 μM compound
Procedure, shortened: (§1)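 Compound was incubated with liver microsomes plus an NADP+/glucose-6-phosphate/G6PDH/MgCl2 regenerating system at 37°C for 1 h. Reactions were stopped 1:1 with MeOH or ACN and analysed by LCMS.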

[4] = Microsomal stability, rat liver microsomes; type: in vitro ADME; conditions: percentage of compound remaining after 60 minutes, 3 μM compound
Procedure, shortened: as §1

[5] = tested on: MMP13 in SW1353 cells; assay: OSM/IL-1β signaling assay (MMP13 levels in SW1353 cells); type: cell-based; conditions: Homo sapiens; SW1353 cells, OSM and IL-1β triggered, MMP13 levels 48 hours after triggering; read-out: MMP13 EC50;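 note: secreted MMP13 captured by antibody, activated with APMA and its activity read by fluorescence, inhibition scaled between vehicle-treated triggered wells (0%) and untriggered wells (100%)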
[6] = tested on: JAK-STAT signalling in HeLa cells; assay: JAK-STAT signalling assay (OSM-triggered pSTAT1(2)-luciferase reporter in HeLa cells); type: cell-based; conditions: Homo sapiens; HeLa cells, OSM-triggered pSTAT1(2)-luciferase reporter; read-out: STAT signalling EC50
Procedure, shortened: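 HeLa cells transiently transfected with pSTAT1(2)-luciferase reporter plus LacZ internal control, incubated overnight at 37 °C, 10% CO2, then OSM-stimulated with compound. Luciferase read by Steadylite luminescence and normalised to β-galactosidase (ONPG); percent inhibition from controls, EC50 from dose-response.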

[7] = target: Recombinant human JAK2 catalytic domain (Homo sapiens (Human), UniProt O60674); assay: JAK2 inhibition assay; type: biochemical; conditions: semi-quantitative score
Procedure, shortened: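 Radiometric kinase reactions ran for 90 min at 30 °C and were stopped with phosphoric acid, then washed and counted by scintillation. Percent inhibition was set relative to vehicle and to 10 μM staurosporine background. IC50 was derived from dose-dilution series.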

Chain of Recombinant human JAK2 catalytic domain (O60674 808-1132): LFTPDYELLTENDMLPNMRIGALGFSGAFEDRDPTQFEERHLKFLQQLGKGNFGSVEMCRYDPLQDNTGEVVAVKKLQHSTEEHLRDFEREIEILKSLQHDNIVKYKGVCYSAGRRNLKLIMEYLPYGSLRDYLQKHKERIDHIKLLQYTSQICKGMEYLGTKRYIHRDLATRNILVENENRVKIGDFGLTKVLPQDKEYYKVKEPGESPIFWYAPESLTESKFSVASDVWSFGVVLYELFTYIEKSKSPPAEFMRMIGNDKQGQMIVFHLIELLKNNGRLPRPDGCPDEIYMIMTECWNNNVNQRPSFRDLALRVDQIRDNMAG
Chain of Recombinant human JAK1 catalytic domain (P23458 850-1154): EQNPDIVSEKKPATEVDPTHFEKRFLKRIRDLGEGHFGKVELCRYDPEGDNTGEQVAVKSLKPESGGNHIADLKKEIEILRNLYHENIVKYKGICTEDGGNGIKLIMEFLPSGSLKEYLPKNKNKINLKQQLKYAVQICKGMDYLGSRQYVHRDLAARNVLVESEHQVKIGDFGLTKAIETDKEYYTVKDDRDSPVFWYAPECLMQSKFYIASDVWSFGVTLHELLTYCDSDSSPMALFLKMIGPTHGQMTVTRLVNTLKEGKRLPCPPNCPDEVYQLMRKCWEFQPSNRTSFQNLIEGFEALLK

Papp A→B at 1 h, 10 µM [1]	efflux ratio at 1 h, 10 µM [1]	IC50 [2]	Microsomal Stability Human (%) [3]	Microsomal Stability Rat (%) [4]	EC50 [5]	EC50 [6]	IC50 [7]	Compound
0.45 ×10⁻⁶ cm/s	68.8	101 to 500 nM	*** (*** 51-75)	**** (**** 76-100)				O=C(NCc1cccnc1)c1ccc(-c2cccc3nc(NC(=O)C4CC4)nn23)cc1 [Compound 42, 4-(2-(cyclopropanecarboxamido)-[1,2,4]triazolo[1,5-a]pyridin-5-yl)-N-(pyridin-3-ylmethyl)benzamide]
11 ×10⁻⁶ cm/s			**** (**** 76-100)	*** (*** 51-75)	> 1000 nM	> 1000 nM		O=C(Nc1nc2cccc(-c3ccc(C(=O)N4CCC(F)(F)CC4)cc3)n2n1)C1CC1 [Compound 168]
0.5 ×10⁻⁶ cm/s	1	< 100 nM	* (* 0-25)	* (* 0-25)		> 1000 nM		O=C(Nc1nc2cccc(-c3ccc4c(ccn4C(=O)CCc4ccccc4)c3)n2n1)C1CC1 [Compound 179, Cyclopropanecarboxylic Acid {5-[1-(3-phenyl-propionyl)-1H-indol-5-yl]-[1,2,4]triazolo[1,5-a]pyridin-2-yl}-amide]
		< 100 nM	* (* 0-25)	* (* 0-25)	1 to 500 nM	501 to 1000 nM	< 100 nM	COc1ccc(NCc2ccc(-c3cccc4nc(NC(=O)C5CC5)nn34)cc2)cn1 [Compound 236, Cyclopropanecarboxylic acid (5-{4-[(6-methoxy-pyridin-3-ylamino)-methyl]-phenyl}-[1,2,4]triazolo[1,5-a]pyridin-2-yl)-amide]
		< 100 nM	*** (*** 51-75)	**** (**** 76-100)	> 1000 nM	501 to 1000 nM	101 to 500 nM	O=C(Nc1nc2cccc(-c3ccc(CN4CCN(CC(F)(F)F)CC4)cc3)n2n1)C1CC1 [Compound 241, Cyclopropanecarboxylic acid (5-{4-[4-(2,2,2-trifluoro-ethyl)-piperazin-1-ylmethyl]-phenyl}-[1,2,4]triazolo[1,5-a]pyridin-2-yl)-amide]
		< 100 nM	* (* 0-25)	* (* 0-25)	501 to 1000 nM	501 to 1000 nM	< 100 nM	O=C(Nc1nc2cccc(-c3ccc(CNc4ccccn4)cc3)n2n1)C1CC1 [Compound 244, Cyclopropanecarboxylic acid (5-[4-(pyridin-2-ylaminomethyl)-phenyl]-[1,2,4]triazolo[1,5-a]pyridin-2-yl}-amide]
		< 100 nM	* (* 0-25)	* (* 0-25)	> 1000 nM	101 to 500 nM	< 100 nM	COc1c(F)ccc(NCc2ccc(-c3cccc4nc(NC(=O)C5CC5)nn34)cc2)c1F [Compound 245, Cyclopropanecarboxylic acid (5-{4-[(2,4-difluoro-3-methoxy-phenylamino)-methyl]-phenyl}-[1,2,4]triazolo[1,5-a]pyridin-2-yl)-amide]
		< 100 nM	* (* 0-25)	* (* 0-25)	501 to 1000 nM	101 to 500 nM	< 100 nM	O=C(Nc1nc2cccc(-c3ccc(CNc4c(F)cccc4F)cc3)n2n1)C1CC1 [Compound 246, Cyclopropanecarboxylic acid (5-{4-[(2,6-difluoro-phenylamino)-methyl]-phenyl}-[1,2,4]triazolo[1,5-a]pyridin-2-yl)-amide]
24 ×10⁻⁶ cm/s	1.1						< 100 nM	O=C(Nc1nc2cccc(-c3ccc(CNc4ncc(F)cc4F)cc3)n2n1)C1CC1 [Compound 257, Cyclopropanecarboxylic acid (5-{4-[(3,5-difluoro-pyridin-2-ylamino)-methyl]-phenyl}-[1,2,4]triazolo[1,5-a]pyridin-2-yl)-amide]
		< 100 nM	* (* 0-25)	**** (**** 76-100)	> 1000 nM	501 to 1000 nM	101 to 500 nM	O=C(Nc1nc2cccc(-c3ccc(CC(=O)N4CCCCC4)cc3)n2n1)C1CC1 [Compound 266, Cyclopropanecarboxylic acid {5-[4-(2-oxo-2-piperidin-1-yl-ethyl)-phenyl]-[1,2,4]triazolo[1,5-a]pyridin-2-yl}-amide]
		< 100 nM	**** (**** 76-100)	**** (**** 76-100)	> 1000 nM	> 1000 nM	101 to 500 nM	O=C(Nc1nc2cccc(-c3ccc(CC(=O)N4CCS(=O)(=O)CC4)cc3)n2n1)C1CC1 [Compound 267, Cyclopropanecarboxylic acid (5-{4-[2-(1,1-dioxo-thiomorpholin-4-yl)-2-oxo-ethyl]-phenyl}-[1,2,4]triazolo[1,5-a]pyridin-2-yl)-amide]
		< 100 nM	**** (**** 76-100)	**** (**** 76-100)	> 1000 nM	> 1000 nM	< 100 nM	CN(C(=O)c1ccc(-c2cccc3nc(NC(=O)C4CC4)nn23)cc1)C1CCS(=O)(=O)C1 (stereo not shown) [Compound 273, 4-[2-(Cyclopropanecarbonyl-amino)-[1,2,4]triazolo[1,5-a]pyridin-5-yl]-N-(1,1-dioxo-tetrahydrothiophen-3-yl)-N-methyl-benzamide]
1.05 ×10⁻⁶ cm/s	70.2	< 100 nM		**** (**** 76-100)	> 1000 nM	> 1000 nM	< 100 nM	CC(=O)N(Cc1ccc(C#N)nc1)c1ccc(-c2cccc3nc(NC(=O)C4CC4)nn23)cc1 [Compound 297, Cyclopropanecarboxylic acid (5-{4-[acetyl-(6-cyano-pyridin-3-ylmethyl)-amino]-phenyl}-[1,2,4]triazolo[1,5-a]pyridin-2-yl)-amide]
13.9 ×10⁻⁶ cm/s	1.31	< 100 nM		* (* 0-25)	> 1000 nM	101 to 500 nM	< 100 nM	N#CCc1ccc(OCc2ccc(-c3cccc4nc(NC(=O)C5CC5)nn34)cc2)cc1 [Compound 301, Cyclopropanecarboxylic acid {5-[4-(4-cyanomethyl-phenoxymethyl)-phenyl]-[1,2,4]triazolo[1,5-a]pyridin-2-yl}-amide]
0.3 ×10⁻⁶ cm/s	69.7	< 100 nM		**** (**** 76-100)	> 1000 nM	> 1000 nM	< 100 nM	O=C(Nc1nc2cccc(-c3ccc(CNC4CCS(=O)(=O)C4)cc3)n2n1)C1CC1 (stereo not shown) [Compound 304, Cyclopropanecarboxylic acid (5-{4-[(1,1-dioxo-tetrahydro-thiophen-3-ylamino)-methyl]-phenyl}-[1,2,4]triazolo[1,5-a]pyridin-2-yl)-amide]
